{"source": "patent US20250099952A1", "about": "“MICROFLUIDIC DEVICE AND USES THEREOF” (CASE WESTERN RESERVE UNIVERSITY, priority 2019, published 2025)", "key": {"RBCs from healthy donors": {"system": "RBCs from healthy donors", "test": "Occlusion Chip microfluidic assessment of RBC deformability (RBC Occlusion Index) after chemical treatment", "assay_type": "cell-based, human", "conditions": "for RBC Occlusion Index (ROI), mean±SEM: directly suspended in PBS, N=4", "experimental": "Whole blood samples were centrifuged at 500×g for 5 min at 4° C., plasma was removed, and the RBCs were washed twice in PBS, and re-suspended at a 20% hematocrit value. The Occlusion Chip was placed on an Olympus IX83 inverted motorized microscope stage for high-resolution imaging. The RBC samples were perfused through the microchannel under constant pressure for 20 min (FIGS. 12A & B). Non-retained RBCs were rinsed away by injecting PBS into the microchannel under the same pressure. […] Phase contrast, bright field, and fluorescent images were recorded at 20× using the Olympus Cell Sense live imaging software (excitation/emission wavelength, 488/505-580 for Green Fluorescent Protein, GFP). Post processing of recorded images and cell counting were performed using Adobe Photoshop (San Jose, CA). Oxygen tension was controlled in hypoxia experiments using a custom designed gas exchange setup as described in Supplementary Materials. Scanning electron microscopy was performed on the micropillars and RBCs.\nGlutaraldehyde, a non-specific protein cross-linker, and diamide, a thiol group oxidant inducing disulfide cross-linking of band 3, are used to stiffen RBCs in order to mimic impaired RBC deformability, seen in pathological conditions. Precisely controlled exposure of RBC to graded concentrations of glutaraldehyde or diamide was utilized to verify Occlusion Chip functionality. RBCs from healthy donors exposed to graded concentrations, 0.00% (as control), 0.02%, 0.04%, and 0.08% (w/v), of glutaraldehyde were mixed with untreated normal RBCs to achieve 1% treated cells and were suspended in PBS for microfluidic assessment. RBCs exposed to same graded concentrations of diamide were directly suspended in PBS for microfluidic assessment. […] The retained RBCs were fluorescently labeled with anti-glycophorin A (CD235a, Abcam, Cambridge, MA) antibodies. […] At the end of the test, numbers of occlusions induced by poorly-deformable RBCs within each micropillar array were quantified (FIGS. 7D&E). […] To assess the overall RBC deformability of specific samples, we assigned different weight to the occlusion events quantitated within different micropillar arrays, and defined a new parameter ‘RBC Occlusion Index’ (ROI) using the following equation,\nMercury is a toxic heavy metal that binds to RBC membranes with high affinity and results in RBC hemolysis. Mercuric ions induce membrane conformational changes and impair RBC deformability."}, "[1]": {"system": "RBCs in whole venous blood", "test": "Fibrinogen-accelerated RBC sedimentation in whole blood", "assay_type": "cell-based, human", "conditions": "fibrinogen stock 40 mg/ml mixed with whole blood 1:9 to 1:1 (v/v), monitored over 20 min, compared to PBS", "experimental": "The experiments are performed immediately after blood draw through […]. We examine the effect of additional fibrinogen on RBC sedimentation, which has been reported to have a marked correlation between the concentration of and the erythrocyte sedimentation rate.\nWhole venous blood was drawn with anticoagulated EDTA into a 1.5 ml microcentrifuge tube. Fibrinogen stock solution with the concentration of 40 mg/ml (in PBS) was mixed with whole blood at ratios of 1:9, 1:4, 1:2, and 1:1 (v/v) and the final volume of the mixtures was adjusted to 500 μl. Control groups were mixtures of whole blood and PBS at the same volume ratios. The sedimentation of RBCs was monitored over a period of 20 minutes. […] In addition, fibrinogen mediated RBC sedimentation became stable when it approached 20 min, and no more noticeable difference was observed between blood samples with different concentrations of fibrinogen. Therefore, the 1:9 fibrinogen and whole blood mixture (4 mg/ml final fibrinogen concentration) was selected based on a cost-effective point of view, from which 150 μl plasma was collected for further processing."}}}
{"molecule": "CN(C)C(=O)/N=N/C(=O)N(C)C", "note": "[diamide]", "values": [{"measurement": "RBC Occlusion Index (ROI), mean±SEM", "setting": "RBCs from healthy donors; RBCs exposed to 0.02% diamide", "result": "329.9±37.2"}, {"measurement": "RBC Occlusion Index (ROI), mean±SEM", "setting": "RBCs from healthy donors; RBCs exposed to 0.04% diamide", "result": "459.8±71.6"}, {"measurement": "RBC Occlusion Index (ROI), mean±SEM", "setting": "RBCs from healthy donors; RBCs exposed to 0.08% diamide", "result": "645.1±87.6"}, {"measurement": "effect on RBC stiffness and membrane morphology", "setting": "RBCs from healthy donors; diamide exposure, micropillar device 20 μm to 4 μm", "result": "induce structural stiffening of RBCs without interrupting the cell membrane morphology"}]}
{"molecule": "O=CCCCC=O", "note": "[glutaraldehyde]", "values": [{"measurement": "increase in total occlusion level compared to the control", "setting": "RBCs from healthy donors; 0.08% (w/v) glutaraldehyde", "result": "more than 16 fold"}]}
{"molecule": "fibrinogen", "values": [{"measurement": "RBC sedimentation (visual, words)", "setting": "[1]", "result": "significantly accelerated the sedimentation of RBCs compared to PBS"}]}
{"molecule": "mercuric ion", "values": [{"measurement": "effect on RBC deformability", "setting": "RBCs from healthy donors", "result": "moderately reduces RBC deformability"}]}
